Literature values in US7858117B2, “Amphoteric liposomes and their use” (Novosom AG, priority 2002, dated 2010).

| Substance | pK value of the carboxyl group (state of the art) | pI (protein) |
| --- | --- | --- |
| cholesterol hemisuccinate | approximately 4.5 | – |
| lysozyme | – | 11.5 |
